The source made the active and inactive calls.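 The calls were made as follows: active = every repeat run shows inhibition with half-maximal dose at most twice the top dose tested; inconclusive = repeat runs disagree on the call; inactive = every repeat run inactive.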
molecular target: Glycogen synthase kinase-3 beta (Homo sapiens) (UniProt P49841); test: GSK3beta kinase inhibition, dose response, selectivity assay for CDK5 tau phosphorylation inhibitor project, biochemical, ADP-Glo luminescence, GST-GSK3beta, dry powder (AID 602272); details: recombinant GST-GSK3beta, 60 min
Sequence (P49841 whole entry, looked up): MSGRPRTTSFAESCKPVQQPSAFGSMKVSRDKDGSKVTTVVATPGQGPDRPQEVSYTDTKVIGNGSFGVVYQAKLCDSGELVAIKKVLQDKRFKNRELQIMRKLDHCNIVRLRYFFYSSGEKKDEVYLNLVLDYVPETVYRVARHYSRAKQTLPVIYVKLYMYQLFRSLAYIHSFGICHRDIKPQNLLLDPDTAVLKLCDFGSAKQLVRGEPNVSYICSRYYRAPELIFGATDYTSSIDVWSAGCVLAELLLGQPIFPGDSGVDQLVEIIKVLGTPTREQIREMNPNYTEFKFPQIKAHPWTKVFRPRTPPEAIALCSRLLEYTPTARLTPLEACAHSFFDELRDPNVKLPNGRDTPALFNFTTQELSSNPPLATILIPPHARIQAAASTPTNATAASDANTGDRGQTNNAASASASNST

**Q.** How did the AC50 turn out when `CC(C)(C)n1c(NC(=O)c2cccc(S(C)(=O)=O)c2)nc2ccccc21` was run?
**A.** The AC50 was 18.9 µM.

same assay, conditions: recombinant GST-GSK3beta, 60 min, at 30 µM (top of the series)

**Q.** With `CCCn1c(NC(=O)c2cccc(S(=O)(=O)N(CC)CC)c2)nc2ccccc21` as the compound, how does the “activity change, negative = inhibition” value read?
**A.** Its value is “inactive”.

**Q.** How did the “activity change, negative = inhibition” value turn out when `COCCC(=O)N1CCN(c2ccccn2)CC1` was run?
**A.** Its value is “inactive”.

**Q.** With `O=C(c1ccc(Cl)cc1)N1CCN(c2ccccn2)CC1` as the compound, how does the “activity change, negative = inhibition” value read?
**A.** The value was “inactive”.

**Q.** How did the “activity change, negative = inhibition” value turn out when `Cc1ccc(C(=O)N2CCN(c3ccccn3)CC2)cc1` was run?
**A.** The value was “inactive”.

**Q.** `CC(C)C(=O)N1CCN(c2ccccn2)CC1` was tested. Which “activity change, negative = inhibition” value did it give?
**A.** The value was “inactive”.

**Q.** With `COc1ccc(C(=O)N2CCN(c3ccccn3)CC2)cc1` as the compound, how does the “activity change, negative = inhibition” value read?
**A.** Its value is “inactive”.

**Q.** For `Cc1ccc(N2CCN(C(=O)c3ccc(Cl)cc3)CC2)nc1`, which “activity change, negative = inhibition” value is on record?
**A.** Its value is “inactive”.

**Q.** For `O=C(c1ccc(Cl)cc1)N1CCN(c2ncccc2C(F)(F)F)CC1`, which “activity change, negative = inhibition” value is on record?
**A.** Its value is “inactive”.

**Q.** For `COc1cc(C(=O)N2CCN(c3ccccc3)CC2)cc(OC)c1OC`, which “activity change, negative = inhibition” value is on record?
**A.** The value was “inactive”.

**Q.** Which “activity change, negative = inhibition” value does the source give for `Cc1ccnc(N2CCN(C(=O)c3ccc(Cl)cc3)CC2)c1` here?
**A.** The value was “inactive”.

**Q.** With `O=C(C1CCCCC1)N1CCN(c2ccccn2)CC1` as the compound, how does the “activity change, negative = inhibition” value read?
**A.** The value was “inactive”.

**Q.** `c1ccc(N2CCNCC2)nc1` was tested. Which “activity change, negative = inhibition” value did it give?
**A.** The value was “inactive”.

**Q.** For `CCn1c(NC(=O)c2cccc(S(=O)(=O)NC)c2)nc2ccccc21`, which “activity change, negative = inhibition” value is on record?
**A.** Its value is “inactive”.

**Q.** Which “activity change, negative = inhibition” value does the source give for `COc1ccnc(N2CCN(C(=O)c3ccc(Cl)cc3)CC2)c1` here?
**A.** The value was “inactive”.

**Q.** For `CCCCC(=O)N1CCN(c2ccccn2)CC1`, which “activity change, negative = inhibition” value is on record?
**A.** Its value is “inactive”.

**Q.** `O=C(c1ccccc1Cl)N1CCN(c2ccccn2)CC1` was tested. Which “activity change, negative = inhibition” value did it give?
**A.** The value was “inactive”.

**Q.** With `O=C(c1ccc(Cl)cc1)N1CCN(c2ccc(C(F)(F)F)cn2)CC1` as the compound, how does the “activity change, negative = inhibition” value read?
**A.** Its value is “inactive”.

**Q.** With `O=C(c1ccc(F)cc1)N1CCN(c2ccccn2)CC1` as the compound, how does the “activity change, negative = inhibition” value read?
**A.** Its value is “inactive”.

**Q.** Which “activity change, negative = inhibition” value does the source give for `O=C(c1ccc(Cl)cc1)N1CCN(c2cccc(C(F)(F)F)n2)CC1` here?
**A.** The value was “inactive”.

**Q.** With `COc1cc(C(=O)N2CCN(c3ccccn3)CC2)cc(OC)c1OC` as the compound, how does the “activity change, negative = inhibition” value read?
**A.** The value was “inactive”.

**Q.** With `CCCn1c(NC(=O)c2cccc(S(=O)(=O)N3CCCCC3)c2)nc2ccccc21` as the compound, how does the “activity change, negative = inhibition” value read?
**A.** Its value is “inactive”.

**Q.** For `Cc1cccc(N2CCN(C(=O)c3ccc(Cl)cc3)CC2)n1`, which “activity change, negative = inhibition” value is on record?
**A.** The value was “inactive”.

**Q.** With `COc1cccnc1N1CCN(C(=O)c2ccc(Cl)cc2)CC1` as the compound, how does the “activity change, negative = inhibition” value read?
**A.** The value was “inactive”.

**Q.** How did the “activity change, negative = inhibition” value turn out when `CCCn1c(NC(=O)c2ccc(Cl)c(S(=O)(=O)N3CCCC3)c2)nc2ccccc21` was run?
**A.** The value was “inactive”.

**Q.** With `N#Cc1ccc(C(=O)N2CCN(c3ccccn3)CC2)cc1` as the compound, how does the “activity change, negative = inhibition” value read?
**A.** The value was “inactive”.

**Q.** With `N#Cc1ccc(N2CCN(C(=O)c3ccc(Cl)cc3)CC2)nc1` as the compound, how does the “activity change, negative = inhibition” value read?
**A.** The value was “inactive”.

**Q.** `CCCn1c(NC(=O)c2ccc(OC)c(S(=O)(=O)N3CCCC3)c2)nc2ccccc21` was tested. Which “activity change, negative = inhibition” value did it give?
**A.** Its value is “inactive”.

**Q.** With `O=C(c1ccccc1)N1CCN(c2ccccn2)CC1` as the compound, how does the “activity change, negative = inhibition” value read?
**A.** The value was “inactive”.

**Q.** With `COc1cccc(C(=O)N2CCN(c3ccccn3)CC2)c1` as the compound, how does the “activity change, negative = inhibition” value read?
**A.** Its value is “inactive”.

**Q.** `O=C(c1cccc(Cl)c1)N1CCN(c2ccccn2)CC1` was tested. Which “activity change, negative = inhibition” value did it give?
**A.** The value was “inactive”.

**Q.** How did the “activity change, negative = inhibition” value turn out when `CCOc1cc(C(=O)N2CCN(c3ccccn3)CC2)cc(OCC)c1OCC` was run?
**A.** The value was “inactive”.

**Q.** How did the “activity change, negative = inhibition” value turn out when `N#Cc1cccnc1N1CCN(C(=O)c2ccc(Cl)cc2)CC1` was run?
**A.** Its value is “inactive”.

**Q.** Which “activity change, negative = inhibition” value does the source give for `CCCn1c(NC(=O)c2cccc(S(=O)(=O)N(C)C)c2)nc2ccccc21` here?
**A.** The value was “inactive”.
